The target in the assay is T1, Endo-CC1 (Coprinopsis cinerea, UniProt A8P7P2).
T1 construct: gene CC1G_11102; full-length cDNA, 787 residues, His6-tagged, pET23b NdeI/XhoI, E. coli BL21-CodonPlus (DE3), HisTrap purified
The assay is described as follows: HPLC of Dns-Asn-GlcNAc release, Lineweaver-Burk. It is filed as biochemical. The following applies: 100 mM phosphate pH 7.5, 37 C; hydrolysis.

T1 sequence (A8P7P2 entry or part of it): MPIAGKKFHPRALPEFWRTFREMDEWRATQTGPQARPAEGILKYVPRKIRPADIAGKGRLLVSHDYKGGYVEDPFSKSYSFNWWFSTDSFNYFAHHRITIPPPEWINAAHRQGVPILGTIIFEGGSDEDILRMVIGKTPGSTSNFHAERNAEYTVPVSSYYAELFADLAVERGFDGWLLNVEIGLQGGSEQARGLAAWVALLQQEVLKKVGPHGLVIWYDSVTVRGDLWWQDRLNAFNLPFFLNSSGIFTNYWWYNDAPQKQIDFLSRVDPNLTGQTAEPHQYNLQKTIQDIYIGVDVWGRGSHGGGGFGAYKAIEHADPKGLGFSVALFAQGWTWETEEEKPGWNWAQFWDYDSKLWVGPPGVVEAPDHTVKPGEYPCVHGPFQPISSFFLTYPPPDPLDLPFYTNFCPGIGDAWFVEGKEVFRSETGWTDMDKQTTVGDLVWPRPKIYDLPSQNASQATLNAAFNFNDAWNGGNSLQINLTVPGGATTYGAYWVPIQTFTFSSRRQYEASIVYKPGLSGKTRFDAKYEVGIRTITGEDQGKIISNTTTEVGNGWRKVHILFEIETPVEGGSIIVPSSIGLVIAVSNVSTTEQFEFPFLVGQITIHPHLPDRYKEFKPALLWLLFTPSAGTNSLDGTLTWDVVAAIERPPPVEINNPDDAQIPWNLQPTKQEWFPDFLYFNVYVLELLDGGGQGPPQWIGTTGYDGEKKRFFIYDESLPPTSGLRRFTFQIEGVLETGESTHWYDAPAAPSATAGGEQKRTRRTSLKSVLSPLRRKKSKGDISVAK

By Km is commonly meant the concentration of substrate that gives half-maximal velocity. In the case of Dns-SG, the Km stood at 1900 µM.

These data come from publication PMC4510386, “Transglycosylation Activity of Glycosynthase Mutants of Endo-β-N-Acetylglucosaminidase from Coprinopsis cinerea” (PLoS ONE, 2015).
